Data: US20140193827A1 (TEVA PHARMACEUTICAL INDUSTRIES, LTD., priority 2013, published 2014)

System: GA-primed murine splenocytes
Assay: Tolerance method for assessing process variability

glatiramer acetate [GA]
AVG expression IRGB10 (probe ILMN_2534151): 9.691
AVG expression LOC624610 (probe ILMN_2537948): 8.96
AVG expression LOC666559 (probe ILMN_2540103): 10.7199
AVG expression AUH (probe ILMN_2543417): 8.451
AVG expression HIPK2 (probe ILMN_2545445): 7.332
AVG expression GNG12 (probe ILMN_2546272): 9.731
AVG expression 4930426D05RIK (probe ILMN_2548681): 7.1
AVG expression A130093I21RIK (probe ILMN_2553041): 7.932
AVG expression A630006E02RIK (probe ILMN_2560567): 9.937
AVG expression NDR3 (probe ILMN_2571414): 6.289
AVG expression GAD1 (probe ILMN_2573826): 6.891
AVG expression B930094H08R1K (probe ILMN_2578341): 6.497
AVG expression D530007E13RIK (probe ILMN_2581681): 8.386
AVG expression IL8RA (probe ILMN_2588216): 6.682
AVG expression PLTP (probe ILMN_2589401): 7.226
AVG expression IL27RA (probe ILMN_2591156): 8.583
AVG expression BC021614 (probe ILMN_2591342): 7.519
AVG expression QPRT (probe ILMN_2591754): 7.245
AVG expression genericLYRP1 (probe ILMN_2592486): 7.785
AVG expression SCG5 (probe ILMN_2592953): 6.961
AVG expression DOCK10 (probe ILMN_2593143): 11.3
AVG expression IGTP (probe ILMN_2593554): 12.78
AVG expression KCNK13 (probe ILMN_2593787): 6.48
AVG expression NSDHL (probe ILMN_2594521): 8.078
AVG expression NSDHL (probe ILMN_2594525): 8.365
AVG expression LOC100046232 (probe ILMN_2595732): 11.55
AVG expression RGS1 (probe ILMN_2596596): 8.683
AVG expression SLC44A2 (probe ILMN_2599719): 11.36
AVG expression MPO (probe ILMN_2600421): 7.594
AVG expression OVGP1 (probe ILMN_2600928): 6.54
AVG expression A130092J06RIK (probe ILMN_2601453): 10.81
AVG expression CREM (probe ILMN_2602899): 7.714
AVG expression KLF2 (probe ILMN_2604029): 11.34
AVG expression RANBP10 (probe ILMN_2605453): 9.654
AVG expression AI646023 (probe ILMN_2605858): 6.049
AVG expression AGFG1 (probe ILMN_2606072): 9.007
AVG expression PDLIM4 (probe ILMN_2606162): 9.727
AVG expression ACOT7 (probe ILMN_2606180): 9.205
AVG expression CMAH (probe ILMN_2606825): 7.634
AVG expression CHI3L1 (probe ILMN_2609813): 9.339
AVG expression IFT172 (probe ILMN_2611450): 8.856
AVG expression SLC25A19 (probe ILMN_2611532): 9.008
AVG expression SERPINB6B (probe ILMN_2611755): 8.188
AVG expression ARHGEF18 (probe ILMN_2612125): 10.09
AVG expression LSS (probe ILMN_2614161): 9.397
AVG expression B3GNT8 (probe ILMN_2614889): 8.954
AVG expression DPP4 (probe ILMN_2615096): 9.69
AVG expression CHAC1 (probe ILMN_2617468): 8.051
AVG expression C330008K14RIK (probe ILMN_2618148): 10.14
AVG expression SLC2A6 (probe ILMN_2618918): 10.76
AVG expression LGALS1 (probe ILMN_2619107): 10.71
AVG expression ERAF (probe ILMN_2619200): 8.714
AVG expression PRNP (probe ILMN_2619316): 9.719
AVG expression ATF3 (probe ILMN_2619408): 6.791
AVG expression RGS1 (probe ILMN_2625377): 9.769
AVG expression ACSS1 (probe ILMN_2628174): 10.26
AVG expression SOCS2 (probe ILMN_2628178): 9.548
AVG expression ASAH3L (probe ILMN_2629112): 6.995
AVG expression CPM (probe ILMN_2629191): 9.17
AVG expression PPAP2B (probe ILMN_2630993): 7.507
AVG expression TMEM71 (probe ILMN_2631610): 6.536
AVG expression CTLA4 (probe ILMN_2631752): 8.62
AVG expression ACOT7 (probe ILMN_2632264): 11.36
AVG expression SOCS1 (probe ILMN_2634796): 7.681
AVG expression IGH-VJ558 (probe ILMN_2635272): 13.22
AVG expression AXUD1 (probe ILMN_2636403): 10.85
AVG expression PLA2G12A (probe ILMN_2636536): 9.884
AVG expression SLAMF7 (probe ILMN_2638491): 8.628
AVG expression HSPD1 (probe ILMN_2639036): 9.439
AVG expression AK2 (probe ILMN_2641360): 10.39
AVG expression GTF2I (probe ILMN_2642462): 11.52
AVG expression EMP1 (probe ILMN_2642913): 7.96
AVG expression ASNS (probe ILMN_2643513): 9.742
AVG expression THY1 (probe ILMN_2644350): 11.24
AVG expression MVD (probe ILMN_2645275): 9.423
AVG expression SAMSN1 (probe ILMN_2646322): 11.87
AVG expression JUN (probe ILMN_2646625): 8.291
AVG expression CENTD1 (probe ILMN_2646891): 10.77
AVG expression SIGLECG (probe ILMN_2648454): 9.552
AVG expression GPNMB (probe ILMN_2648669): 7.401
AVG expression MAN2A2 (probe ILMN_2650255): 6.819
AVG expression ARHGAP9 (probe ILMN_2650739): 9.141
AVG expression SLC12A7 (probe ILMN_2650953): 6.744
AVG expression genericK1 (probe ILMN_2651886): 11.36
AVG expression LRG1 (probe ILMN_2652500): 6.12
AVG expression IFI47 (probe ILMN_2652857): 11.72
AVG expression SESN1 (probe ILMN_2654074): 10.45
AVG expression MYO6 (probe ILMN_2656854): 8.468
AVG expression IFITM3 (probe ILMN_2658501): 11.43
AVG expression TG (probe ILMN_2658878): 7.479
AVG expression DGKA (probe ILMN_2658961): 11.07
AVG expression IL7R (probe ILMN_2659739): 6.443
AVG expression ACOT7 (probe ILMN_2660182): 8.55
AVG expression ST6GALNAC4 (probe ILMN_2660837): 8.481
AVG expression SCML4 (probe ILMN_2661185): 8.584
AVG expression RAB35 (probe ILMN_2662097): 11.43
AVG expression LMNA (probe ILMN_2662387): 8.27
AVG expression SLAMF9 (probe ILMN_2663249): 8.243
AVG expression EPHX1 (probe ILMN_2664224): 9.837
AVG expression 3110013H01RIK (probe ILMN_2664726): 8.045
AVG expression RIN3 (probe ILMN_2665545): 9.015
AVG expression HEMK1 (probe ILMN_2666272): 9.174
AVG expression PRG4 (probe ILMN_2668333): 5.989
AVG expression HP (probe ILMN_2668509): 7.287
AVG expression HP (probe ILMN_2668510): 7.507
AVG expression CTSA (probe ILMN_2669714): 9.205
AVG expression KIF1B (probe ILMN_2670778): 8.422
AVG expression PFKP (probe ILMN_2673233): 8.097
AVG expression 2310047A01RIK (probe ILMN_2675922): 7.606
AVG expression GRIFIN (probe ILMN_2676543): 6.233
AVG expression RNF144A (probe ILMN_2678127): 7.59
AVG expression MNS1 (probe ILMN_2678431): 8.22
AVG expression DUSP10 (probe ILMN_2678724): 8.26
AVG expression RASGRP2 (probe ILMN_2678726): 6.734
AVG expression IL7R (probe ILMN_2680827): 8.445
AVG expression BCL2 (probe ILMN_2682162): 8.675
AVG expression NALP6 (probe ILMN_2684600): 6.205
AVG expression HMHA1 (probe ILMN_2685023): 11.42
AVG expression CCR5 (probe ILMN_2685392): 7.052
AVG expression CCR5 (probe ILMN_2685393): 7.202
AVG expression IFNG (probe ILMN_2685712): 11.16
AVG expression PRM1 (probe ILMN_2687652): 6.849
AVG expression MCOLN2 (probe ILMN_2689401): 7.5921
AVG expression PKIB (probe ILMN_2690241): 7.745
AVG expression JAKMIP1 (probe ILMN_2690460): 9.597
AVG expression KLHL14 (probe ILMN_2691014): 6.305
AVG expression 9330186A19RIK (probe ILMN_2692554): 6.749
AVG expression TGM2 (probe ILMN_2692615): 8.055
AVG expression ERO1LB (probe ILMN_2692960): 10.32
AVG expression CCDC125 (probe ILMN_2693679): 7.065
AVG expression PNPLA7 (probe ILMN_2695047): 7.637
AVG expression KIFC2 (probe ILMN_2695158): 6.733
AVG expression PHF11 (probe ILMN_2696491): 9.238
AVG expression PHF11 (probe ILMN_2696492): 9.454
AVG expression MSCP (probe ILMN_2696609): 8.264
AVG expression SLC25A37 (probe ILMN_2696610): 8.278
AVG expression CD3D (probe ILMN_2697415): 11.45
AVG expression HIST1H3H (probe ILMN_2698519): 8.014
AVG expression RGS10 (probe ILMN_2699531): 9.937
AVG expression ITGAE (probe ILMN_2699898): 7.502
AVG expression CCND2 (probe ILMN_2700168): 10.82
AVG expression DENND5B (probe ILMN_2700354): 7.911
AVG expression IBRDC3 (probe ILMN_2700689): 9.29
AVG expression LGALS7 (probe ILMN_2703182): 6.931
AVG expression STAC2 (probe ILMN_2703563): 6.876
AVG expression FCRLA (probe ILMN_2703829): 11.55
AVG expression LIMD2 (probe ILMN_2705878): 8.037
AVG expression SYNGR2 (probe ILMN_2706231): 11.42
AVG expression SYNGR2 (probe ILMN_2706232): 11.09
AVG expression LOC100046608 (probe ILMN_2706514): 8.612
AVG expression GPR83 (probe ILMN_2707941): 9.205
AVG expression 5100A8 (probe ILMN_2710905): 12.62
AVG expression IRGM1 (probe ILMN_2711172): 7.157
AVG expression LOC100047619 (probe ILMN_2711948): 10.95
AVG expression TIMP2 (probe ILMN_2712867): 6.749
AVG expression CHI3L3 (probe ILMN_2712986): 7.589
AVG expression SDC3 (probe ILMN_2715042): 9.146
AVG expression SLC12A6 (probe ILMN_2716511): 9.952
AVG expression MAPK11 (probe ILMN_2716622): 8.853
AVG expression RGL1 (probe ILMN_2717176): 7.561
AVG expression TCF7 (probe ILMN_2717975): 8.216
AVG expression CISH (probe ILMN_2718330): 11.35
AVG expression SLAMF1 (probe ILMN_2721571): 9.069
AVG expression CD3G (probe ILMN_2722784): 10.75
AVG expression CCR8 (probe ILMN_2724465): 6.962
AVG expression MAPK12 (probe ILMN_2724570): 6.86
AVG expression IL2 (probe ILMN_2725259): 7.49
AVG expression NSDHL (probe ILMN_2725402): 8.035
AVG expression CD9 (probe ILMN_2725414): 8.904
AVG expression SYTL3 (probe ILMN_2725448): 7.03
AVG expression SERPINA3G (probe ILMN_2725927): 13.9
AVG expression EN2 (probe ILMN_2726471): 6.583
AVG expression B4GALNT1 (probe ILMN_2728270): 10.26
AVG expression 5830431A10R1K (probe ILMN_2729252): 7.881
AVG expression HIST1H3D (probe ILMN_2729958): 9.844
